Measurements reported in US9969716B2, “Indole derivatives as modulators of methyl modifying enzymes, compositions and uses thereof” (Constellation Pharmaceuticals, Inc., priority 2013, dated 2018).
pEC50, pIC50: −log10 of the molar value. Read-outs that look alike come from different tables or passages of the source.

How the values were obtained:
EZH2 = EZH2 (Homo sapiens, UniProt Q15910); experiment: EZH2 assay (rPRC2, 3H SAM methyl transfer to biotinylated oligonucleosomes, FlashPlate); type: biochemical
EZH2, sequence (Q15910 whole entry): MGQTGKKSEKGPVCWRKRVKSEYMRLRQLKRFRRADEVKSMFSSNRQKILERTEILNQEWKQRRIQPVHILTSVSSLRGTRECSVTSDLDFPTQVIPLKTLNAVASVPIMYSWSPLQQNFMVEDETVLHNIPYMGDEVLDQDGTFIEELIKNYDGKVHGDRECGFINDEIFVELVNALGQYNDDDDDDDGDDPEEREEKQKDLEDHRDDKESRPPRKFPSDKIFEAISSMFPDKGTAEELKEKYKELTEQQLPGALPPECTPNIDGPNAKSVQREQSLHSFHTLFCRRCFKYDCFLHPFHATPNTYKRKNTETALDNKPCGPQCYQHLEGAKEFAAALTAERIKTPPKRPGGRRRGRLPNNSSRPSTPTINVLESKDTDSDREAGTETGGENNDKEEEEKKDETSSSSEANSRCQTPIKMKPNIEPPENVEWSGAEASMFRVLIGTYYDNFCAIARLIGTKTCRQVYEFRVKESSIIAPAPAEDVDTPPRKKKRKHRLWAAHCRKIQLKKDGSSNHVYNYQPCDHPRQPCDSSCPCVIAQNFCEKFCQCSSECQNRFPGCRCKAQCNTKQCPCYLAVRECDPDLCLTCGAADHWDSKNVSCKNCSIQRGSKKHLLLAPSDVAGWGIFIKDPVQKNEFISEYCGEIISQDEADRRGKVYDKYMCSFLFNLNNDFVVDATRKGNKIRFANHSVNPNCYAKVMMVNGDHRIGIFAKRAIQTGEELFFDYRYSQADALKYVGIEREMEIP
EZH2, sequence (O75530 whole entry partner): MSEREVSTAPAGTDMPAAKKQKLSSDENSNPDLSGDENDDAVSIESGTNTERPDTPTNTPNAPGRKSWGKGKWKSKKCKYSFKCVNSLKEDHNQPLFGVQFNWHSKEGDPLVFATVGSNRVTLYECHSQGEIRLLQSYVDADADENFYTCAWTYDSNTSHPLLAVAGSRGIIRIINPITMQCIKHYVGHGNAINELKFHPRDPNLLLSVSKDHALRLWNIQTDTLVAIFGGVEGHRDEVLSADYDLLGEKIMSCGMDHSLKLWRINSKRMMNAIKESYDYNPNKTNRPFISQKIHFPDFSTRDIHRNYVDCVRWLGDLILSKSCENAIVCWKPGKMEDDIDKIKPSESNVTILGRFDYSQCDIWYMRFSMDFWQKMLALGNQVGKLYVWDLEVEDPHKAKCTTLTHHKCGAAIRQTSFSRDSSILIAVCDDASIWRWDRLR
EZH2, sequence (Q15022 whole entry partner): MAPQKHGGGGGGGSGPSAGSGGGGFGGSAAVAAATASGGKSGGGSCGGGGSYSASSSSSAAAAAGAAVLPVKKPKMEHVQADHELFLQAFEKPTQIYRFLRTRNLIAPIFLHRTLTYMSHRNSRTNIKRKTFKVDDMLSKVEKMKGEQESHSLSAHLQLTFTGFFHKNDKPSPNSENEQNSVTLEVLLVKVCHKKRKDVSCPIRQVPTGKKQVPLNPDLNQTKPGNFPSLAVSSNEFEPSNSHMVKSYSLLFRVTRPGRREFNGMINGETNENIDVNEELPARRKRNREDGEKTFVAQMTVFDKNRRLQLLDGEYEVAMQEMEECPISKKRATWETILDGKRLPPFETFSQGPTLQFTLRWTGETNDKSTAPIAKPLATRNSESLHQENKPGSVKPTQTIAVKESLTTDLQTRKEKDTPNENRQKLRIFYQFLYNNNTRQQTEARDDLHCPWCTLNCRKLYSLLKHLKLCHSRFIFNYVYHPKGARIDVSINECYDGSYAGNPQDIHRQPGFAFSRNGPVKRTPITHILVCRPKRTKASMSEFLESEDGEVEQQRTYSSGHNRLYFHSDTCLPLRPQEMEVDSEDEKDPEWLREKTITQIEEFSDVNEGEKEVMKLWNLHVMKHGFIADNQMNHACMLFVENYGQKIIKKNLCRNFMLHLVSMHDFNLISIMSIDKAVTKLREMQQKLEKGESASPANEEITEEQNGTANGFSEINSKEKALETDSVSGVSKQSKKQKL
Protocol: (§1) EZH2 Assay: Assays were carried out by mixing rPRC2 together with biotinylated oligonucleosome substrates in the presence of the radio-labeled enzyme co-factor, S-adenosyl-L-methionine (^3H SAM) (Perkin Elmer) and monitoring the enzymatically mediated transfer of tritiated methyl groups from ^3H SAM to histone lysine residues. The amount of resulting tritiated methyl histone product was measured by first capturing the biotinylated oligonucleosomes in streptavidin (SAV) coated FlashPlates (Perkin Elmer), followed by a wash step to remove un-reacted ^3H SAM, and then counting on a TopCount NXT 384 well plate scintillation counter (Perkin Elmer). The final assay conditions for EZH2 were as follows: 50 mM Tris Buffer pH 8.5, 1 mM DTT, 69 μM Brij-35 detergent, 5.0 mM MgCl2, 0.1 mg/mL BSA, 0.2 μM ^3H SAM, 0.2 μM biotinylated oligonucleosomes, 3.6 μM H3K27me3 peptide and 2 nM EZH2.
(§2) A 12.5 μL volume of the HMT enzyme, H3K27me3 peptide and oligonucleosome substrate in assay buffer was added to each well of the assay plate using a Multidrop Combi (ThermoFisher). Compounds were pre-incubated with the enzyme for 20 min, followed by initiation of the methyltransferase reaction by addition of 12.5 μL of ^3H SAM in assay buffer (final volume=25 μL). The final concentrations of compounds ranged from a top default concentration of 80 μM down to 0.16 μM in ten 2-fold dilution steps. Reactions were carried out for 60 minutes and quenched with 20 μL per well of 1.96 mM SAH, 50 mM Tris pH 8.5, 200 mM EDTA. Stopped reactions were transferred to SAV coated Flashplates (Perkin Elmer), incubated for 120 min, washed with a plate washer, and then read on the TopCount NXT (1.0 min/well) to measure the amount of methyl histone product formed during the reaction.

Y641N EZH2 = Y641N EZH2 (Homo sapiens, UniProt Q15910, Y641N); experiment: Y641N EZH2 assay (as EZH2 assay, H3K27Me2 oligonucleosomes as substrate); type: biochemical
Y641N EZH2, sequence (Q15910 whole entry Y641N): as the sequence (Q15910 whole entry) above, with Y641N counted along it
Y641N EZH2, sequence (O75530 whole entry partner): as the sequence (O75530 whole entry partner) above
Y641N EZH2, sequence (Q15022 whole entry partner): as the sequence (Q15022 whole entry partner) above
Protocol: as §1, §2

[1] = test system: H3K27me3 mark in HeLa cells; experiment: H3K27me3 Alpha Hela Assay (AlphaLISA); type: cell-based; conditions: Homo sapiens, 72 hrs, read-out: EZH2_Cell_H3K27me3_Alpha_HeLa (EC50_K27me3)
Protocol: Ten different doses of each test compound (in a series of 3-fold dilutions) were plated in duplicate 384-well tissue culture treated plates (Catalog #781080; Greiner Bio One; Monroe, N.C.). Hela cells grown in culture were trypsinized and counted using a Countess® cell counter (Catalog # C10281; Life Technologies, Grand Island, N.Y.). Cell were diluted to 67,000 cells per mL in 10% DMEM (Catalog #10569-010 Life Technologies, Grand Island, N.Y.) and 15 μL (1,000 cells) were plated into each well using the Biotek MicroFlo™ Select Dispenser (BioTek Instruments, Inc. Vermont, USA),) of the 384-well plate. Plates were incubated at 37° C./5% CO2 for 72 hrs. One of the duplicate plates was processed for HeLa assay and the other for viability.
To the plate processed for AlphaLISA was added 5 μL per well Cell-Histone Lysis buffer (1λ) (Catalog # AL009F1 Perkin Elmer; Waltham, Mass.) and the plate was incubated at RT for 30 minutes on a plate shaker with low speed (Model#4625-Q Thermo Scientific; Waltham, Mass.). Then, 10 μL per well Histone Extraction buffer (catalog # AL009F2; Perkin Elmer; Waltham, Mass.) was added and the plate further incubated at RT for 20 min on plate shaker with low speed. To each well was then added 10 μL per well of a 5× mix of anti-K27me3 acceptor beads plus Biotinylated anti-Histone H3 (C-ter) Antibody (diluted to 3 nM final) (Catalog #AL118 Perkin Elmer; Waltham, Mass.). Dilution of the acceptor beads and then anti-Histone H3 was with 1× Histone Detection buffer (Catalog # AL009F3 Perkin Elmer; Waltham, Mass.) which was produced diluted from the 10× stock provided. The plate was sealed with an aluminum plate sealer and incubated at 23° C. for 60 min. We then added 10 μL 5× solution of Streptavidin Donor beads (Catalog #6760002 Perkin Elmer; Waltham, Mass.) (20 μg/mL final in 1× Histone Detection Buffer), sealed the plate with Aluminum plate sealer and incubated at 23° C. for 30 min. The plates were then read using an EnVision-Alpha Reader (model #2104 Perkin Elmer; Waltham, Mass.).
Data from both assays was analyzed using Assay Assistant (Constellation Pharmaceuticals In-house product) and Activity Base (IDBS Ltd, Surrey, UK) template. Data files were imported to Assay Assistant and assay conditions were specified. A unique Analysis ID was created and the data files exported to Activity Base. An analysis template was created on Activity Base to measure dose-dependent inhibition of H3K27me3 mark and cell viability respectively. Readout of DMSO wells were used to normalize the data. Resulting curves were fitted using Activity base software Model 205 (IDBS Ltd, Surrey, UK). The data was checked for quality, validated and integrated in excel format using SARview (IDBS Ltd, Surrey, UK).

[2] = 2 nM EZH2, 0.2 μM 3H SAM, 0.2 μM biotinylated oligonucleosomes, 3.6 μM H3K27me3 peptide, 60 min, read-out: EZH2_nuc_BSA_Brij_1.5 (IC50)
[3] = Y641N EZH2, reconstituted H3K27Me2 oligonucleosomes as substrate, read-out: EZH2_Y641N_nuc_BSA_Brij_6.0 (IC50)

Structure (SMILES) | pIC50 (EZH2) | pIC50 (Y641N EZH2) | pEC50 [1] | pIC50 (EZH2; [2]) | pIC50 (Y641N EZH2; [3])
COc1cc(C)[nH]c(=O)c1CNC(=O)c1c(C)n([C@H](C)C2CCN(CC(C)(F)F)CC2)c2ccccc12 [Compound 101, (R)-1-(1-(1-(2,2-difluoropropyl)piperidin-4-yl)ethyl)-N-((4-methoxy-6-methyl-2-oxo-1,2-dihydropyridin-3-yl)methyl)-2-methyl-1H-indole-3-carboxamide] | > 7.00 | > 7.00 | > 6.40 | – | –
COc1cc(C)[nH]c(=O)c1CNC(=O)c1c(C)n([C@H](C)C2CCN(CC3(C(F)(F)F)CC3)CC2)c2ccccc12 [Compound 102] | > 7.00 | > 7.00 | > 6.40 | – | –
COc1cc(C)[nH]c(=O)c1CNC(=O)c1c(C)n([C@H](C)C2CCN(CC(F)(F)C(F)F)CC2)c2ccccc12 [Compound 103] | > 7.00 | > 7.00 | > 6.40 | – | –
COc1cc(C)[nH]c(=O)c1CNC(=O)c1c(C)n([C@H](C)C2CCN(C(=O)C3(C(F)(F)F)CCC3)CC2)c2ccccc12 [Compound 104] | > 7.00 | > 7.00 | > 6.40 | – | –
Cc1cc(Cl)c(CNC(=O)c2c(C)n([C@H](C)C3CCN(CC(C)(F)F)CC3)c3ccccc23)c(=O)[nH]1 [Compound 105] | > 7.00 | > 7.00 | > 6.40 | – | –
Cc1cc(Cl)c(CNC(=O)c2c(C)n([C@H](C)C3CCN(CC(F)F)CC3)c3ccccc23)c(=O)[nH]1 [Compound 106] | > 7.00 | > 7.00 | > 6.40 | – | –
CCS(=O)(=O)N1CCC([C@@H](C)n2c(C)c(C(=O)NCc3c(Cl)cc(C)[nH]c3=O)c3ccccc32)CC1 [Compound 107] | > 7.00 | > 7.00 | > 6.40 | – | –
COc1cc(C)[nH]c(=O)c1CNC(=O)c1c(C)n([C@H](C)C2CCN(Cc3cc(F)cc(F)c3)CC2)c2ccccc12 [Compound 109, (R)-1-(1-(1-(3,5-difluorobenzyl)piperidin-4-yl)ethyl)-N-((4-methoxy-6-methyl-2-oxo-1,2-dihydropyridin-3-yl)methyl)-2-methyl-1H-indole-3-carboxamide] | > 7.00 | > 7.00 | > 6.40 | – | –
Cc1cc(OC(F)F)c(CNC(=O)c2c(C)n([C@H](C)C3CCN(CC(F)F)CC3)c3ccccc23)c(=O)[nH]1 [Compound 110] | > 7.00 | > 7.00 | > 6.40 | – | –
Cc1cc(OC(F)F)c(CNC(=O)c2c(C)n([C@H](C)C3CCN(CC(C)(F)F)CC3)c3ccccc23)c(=O)[nH]1 [Compound 111] | > 7.00 | > 7.00 | > 6.40 | – | –
Cc1cc(Cl)c(CNC(=O)c2c(C)n([C@H](C)C3CCN(C4COC4)CC3)c3ccccc23)c(=O)[nH]1 [Compound 112] | > 7.00 | > 7.00 | > 6.40 | – | –
COc1cc(C)[nH]c(=O)c1CNC(=O)c1c(C)n([C@H](C)C2CCN(CC(F)(F)C(F)(F)F)CC2)c2ccccc12 [Compound 113] | > 7.00 | > 7.00 | > 6.40 | – | –
COc1cc(C)[nH]c(=O)c1CNC(=O)c1c(C)n([C@H](C)C2CCN(C(=O)C3(C(F)(F)F)CC3)CC2)c2ccccc12 [Compound 115] | > 7.00 | > 7.00 | > 6.40 | – | –
COc1cc(C)[nH]c(=O)c1CNC(=O)c1c(C)n([C@H](C)C2CCN(CC(C)(C)F)CC2)c2ccccc12 [Compound 116] | > 7.00 | > 7.00 | > 6.40 | – | –
COc1cc(C)[nH]c(=O)c1CNC(=O)c1c(C)n([C@H](C)C2CCN(S(=O)(=O)C3CC3)CC2)c2ccccc12 [Compound 117, (R)-1-(1-(1-(cyclopropylsulfonyl)piperidin-4-yl)ethyl)-N-((4-methoxy-6-methyl-2-oxo-1,2-dihydropyridin-3-yl)methyl)-2-methyl-1H-indole-3-carboxamide] | > 7.00 | > 7.00 | > 6.40 | – | –
COc1cc(C)[nH]c(=O)c1CNC(=O)c1c(C)n([C@H](C)C2CCN(CC3(F)CCC3)CC2)c2ccccc12 [Compound 118] | > 7.00 | > 7.00 | > 6.40 | – | –
COc1cc(C)[nH]c(=O)c1CNC(=O)c1c(C)n([C@H](C)C2CCN(CC3(F)CC3)CC2)c2ccccc12 [Compound 119] | > 7.00 | > 7.00 | > 6.40 | – | –
COc1cc(C)[nH]c(=O)c1CNC(=O)c1c(C)n([C@H](C)C2CCN(c3ncc(F)cn3)CC2)c2ccccc12 [Compound 120] | > 7.00 | > 7.00 | > 6.40 | – | –
COc1cc(C)[nH]c(=O)c1CNC(=O)c1c(C)n([C@H](C)C2CCN(C[C@H](OC)C(F)(F)F)CC2)c2ccccc12 [Compound 121] | > 7.00 | > 7.00 | > 6.40 | – | –
COc1cc(C)[nH]c(=O)c1CNC(=O)c1c(C)n([C@H](C)C2CCN(Cc3ccc(F)cc3)CC2)c2ccccc12 [Compound 122] | > 7.00 | > 7.00 | > 6.40 | – | –
CCS(=O)(=O)N1CCC([C@@H](C)n2c(C)c(C(=O)NCc3c(NC)cc(C)[nH]c3=O)c3ccccc32)CC1 [Compound 123] | > 7.00 | > 7.00 | > 6.40 | – | –
COc1cc(C)[nH]c(=O)c1CNC(=O)c1c(C)n([C@H](C)C2CCN(c3ncc(Br)cn3)CC2)c2ccccc12 [Compound 124, (R)-1-(1-(1-(5-bromopyrimidin-2-yl)piperidin-4-yl)ethyl)-N-((4-methoxy-6-methyl-2-oxo-1,2-dihydropyridin-3-yl)methyl)-2-methyl-1H-indole-3-carboxamide] | > 7.00 | > 7.00 | > 6.40 | – | –
COc1cc(C)[nH]c(=O)c1CNC(=O)c1c(C)n([C@H](C)C2CCN(c3cccnc3)CC2)c2ccccc12 [Compound 125] | > 7.00 | > 7.00 | > 6.40 | – | –
Cc1cc(Cl)c(CNC(=O)c2c(C)n([C@H](C)C3CCN(CCF)CC3)c3ccccc23)c(=O)[nH]1 [Compound 126] | > 7.00 | > 7.00 | > 6.40 | – | –
COc1cc(C)[nH]c(=O)c1CNC(=O)c1c(C)n([C@H](C)C2CCN(C(=O)C(C)(C)C)CC2)c2ccccc12 [Compound 129] | > 7.00 | > 7.00 | > 6.40 | – | –
Cc1cc(C)c(CNC(=O)c2c(C)n([C@H](C)C3CCN(S(=O)(=O)C4CNC4)CC3)c3ccccc23)c(=O)[nH]1 [Compound 171] | – | – | – | > 7.00 | > 7.00
Cc1cc(C)c(CNC(=O)c2c(C)n([C@H](C)C3CCN(S(=O)(=O)C4CCNCC4)CC3)c3ccccc23)c(=O)[nH]1 [Compound 172] | – | – | – | > 7.00 | > 7.00
